What was measured:
neuropathic pain = conditions: cited from earlier work
[1] = target: Substance P receptors (GPI) (Cavia porcellus, UniProt P30547); experiment: GPI substance P antagonist assay in the presence of 1 μM naloxone; parameters: species or system guinea pig; conditions: against Substance P induced contraction, n = 4
Substance P receptors (GPI), sequence (P30547 whole entry): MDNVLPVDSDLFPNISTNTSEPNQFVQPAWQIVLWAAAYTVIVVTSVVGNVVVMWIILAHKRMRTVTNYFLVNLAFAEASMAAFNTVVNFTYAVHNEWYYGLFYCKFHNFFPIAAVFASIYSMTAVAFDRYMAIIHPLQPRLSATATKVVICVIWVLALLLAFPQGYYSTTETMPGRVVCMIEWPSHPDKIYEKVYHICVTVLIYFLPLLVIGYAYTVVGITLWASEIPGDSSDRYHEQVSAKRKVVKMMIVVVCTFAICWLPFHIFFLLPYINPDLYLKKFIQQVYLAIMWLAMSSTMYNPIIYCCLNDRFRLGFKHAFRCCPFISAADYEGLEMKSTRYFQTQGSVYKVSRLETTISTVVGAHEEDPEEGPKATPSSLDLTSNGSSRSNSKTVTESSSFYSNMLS

Compound | effect on neuropathic pain in animal models (neuropathic pain) | opioid-induced tolerance in animal models (neuropathic pain) | SP antagonist Ke, GPI [1]
Tyr^1-D-Ala^2-Gly^3-Phe^4-Met^5-Pro^6-Leu^7-Trp^8-O-[3′,5′-(CF3)2-Bzl] [TY005] | powerful attenuation of neuropathic pain | without producing the opioid-induced tolerance | 
CC(=O)N[C@@H](Cc1c[nH]c2ccccc12)C(=O)OCc1cc(C(F)(F)F)cc(C(F)(F)F)c1 [L-732,138] |  |  | 250 ± 87 nM
